Assay results taken from PMC11931052, “Efficacy of dispirotripiperazine PDSTP in a golden Syrian hamster model of SARS-CoV-2 infection” (Frontiers in Microbiology, 2025).

Tests used:
[1] = Cytotoxicity (MTT test) in Vero E6 cell line; type: cell-based, African Green Monkey (Cercopithecus aethiops); details: African green monkey, mean ± SD, three independent experiments
Protocol: (§1) The microtetrazolium test (MTT test) was used to study the cytotoxicity of the compounds. Vero cells were seeded in 96-well plates at an initial density of 3×10^5 cells/mL, in Gibco Dulbecco’s Modified Eagle Medium supplemented with L-glutamine and 25 mg/L kanamycin, and 10 % fetal bovine serum (FBS) (DMEM, Thermo Fisher Scientific, Waltham, MA USA). Cell cultures were then incubated at 37 °C in a 5 % CO2 atmosphere, in the absence or presence of serial dilutions of test compounds. The test medium used for the cytotoxic assay as well as for the antiviral assay contained 1 % of the appropriate serum. Cell viability was determined after 72 h at 37 °C by the MTT method as previously reported. The cell viability was expressed as a percentage of the control. The 50% cytotoxic concentration (CC50) of each compound was defined as the concentration of the compound that reduced the absorbance (OD570) of the treated cells to 50% when compared with that of untreated cells. CC50 mean values were calculated from at least three independent experiments.

[2] = system: SARS-CoV-2 clinical isolate 35245; experiment: Plaque reduction assay, SARS-CoV-2 35245; type: cell-based; details: Severe acute respiratory syndrome coronavirus 2, read-out: Antiviral activity IC50 against coronaviruses, SARS-CoV-2 clinical isolate 35245, PR
[3] = system: SARS-CoV-2 clinical isolate 35245; experiment: Microtetrazolium (MTT) test, SARS-CoV-2 35245; type: cell-based; details: Severe acute respiratory syndrome coronavirus 2, read-out: Antiviral activity IC50 against coronaviruses, SARS-CoV-2 clinical isolate 35245, MTT
Protocol: The compound’s activity against OC43 and SARS-CoV-235245 was based on the inhibition of virus-induced cytopathogenicity in acutely infected Vero-76 cells (MOI 0.01). Briefly, Vero-76 cells were seeded in 96-well plates at a density of 3 × 10^4 cells/well and incubated in a growth medium in a 5% CO2 at 37°C overnight. Cell monolayers were then infected with 50 μL of the appropriate viral dilution in maintenance medium [D-MEM and MEM-Earl (Gibco, Thermo Fisher Scientific, MA United States) with L-glutamine (Gibco), 1 mM sodium pyruvate (Gibco), and 0.025 g/L kanamycin (Gibco), supplemented with 0.5% inactivated FBS (Harlan Sera-Lab, Loughborough, United Kingdom), respectively] to give an MOI of 0.01, without or with serial dilutions of test samples. After 6 (HCoV-OC43) and 4/5 (SARS-CoV-2) days of incubation at 37°C, the extent of cell viability was quantified using a tetrazolium-based colorimetric method, in which the reduction of 3-(4,5-dimethylthiazol-2-yl)-2,5-diphenyl-tetrazolium bromide (MTT) by mitochondrial dehydrogenases to a soluble colored formazan was measured using a spectrophotometer (Infinity 200, Tecan Austria GmbH, Austria) at 570 nm, as previously reported ([Sanna et al., 2020]).

HCoV-229E = experiment: Plaque reduction assay, HCoV-229E in Vero E6 cells; type: cell-based; details: Human coronavirus 229E, Vero C1008, Vero E6, mean ± SD, read-out: Antiviral activity IC50 against coronaviruses, HCoV-229E, PR
Protocol: (§2) Vero E6 cells were incubated in the presence of PDSTP and reference compounds (100.0, 20.0, 4.0, and 0.8 μM concentrations) for 1 h at 37°C in a 5% CO2 and then infected for 1 h with 250 μL of the corresponding virus (SARS-CoV-2 PV10734 or HCoV-229E) dilutions to obtain 50–100 PFU/well. The plates were then incubated for 1 h at 37°C in a 5% CO2 atmosphere. Following the removal of the unabsorbed virus, 400 μL of the medium (D-MEM with L-glutamine, 4,500 mg/L D-glucose, and 1% inactivated FBS) containing 0.75% methyl-cellulose (M0512, viscosity 4,000 cP, Sigma-Aldrich, United States) and the serial dilutions of the compounds were added and incubated for 4 (SARS-CoV-2) or 2 (HCoV-229E) days at 37°C in a 5% CO2 atmosphere. Subsequently, the cells were fixed and stained with a 0.2% crystal violet solution (V5265, Sigma-Aldrich, United States) and then the number of plaques was calculated. The degree of cell growth/viability and viral multiplication at each drug concentration tested was expressed as a percentage of the untreated control. Concentrations resulting in 50% inhibition (CC50 or EC50) were determined using linear regression analysis.

[4] = system: SARS-CoV-2 clinical isolate VR PV10734; experiment: Plaque reduction assay, SARS-CoV-2 VR PV10734 in Vero E6 cells; type: cell-based; details: Severe acute respiratory syndrome coronavirus 2, Vero C1008, mean ± SD, read-out: Antiviral activity IC50 against coronaviruses, SARS-CoV-2 clinical isolate VR PV10734, PR
Protocol: as §2

[5] = Cytotoxicity (MTT test) in Vero-76 cells; type: cell-based, African Green Monkey (Cercopithecus aethiops); details: African green monkey
Protocol: as §1

HCoV-OC43 = experiment: MTT test, HCoV-OC43 in Vero-76 cells; type: cell-based; details: Betacoronavirus 1, OC43, Vero 76, read-out: IC50 (HCoV-OC43)
SARS-COV-2 PV10734 = experiment: Time-of-addition and cell pre-treatment assay in Vero cells; type: cell-based

| Molecule | CC50 at 72 h ([1]; Vero E6 cells) | IC50 [2] | IC50 [3] | IC50 (HCoV-229E) | IC50 [4] | CC50 at 72 h ([5]; Vero-76 cells) | IC50 (HCoV-OC43) | Antiviral activity after the SARS-CoV-2 entry process (SARS-COV-2 PV10734) | Antiviral activity, pre-treatment and early stages of infection (SARS-COV-2 PV10734) | CC50 at 72 h [1] | CC50 at 72 h [5] | Inhibitory effect at the later stages of infection (SARS-COV-2 PV10734; addition at 4 and 6 hpi) |
| --- | --- | --- | --- | --- | --- | --- | --- | --- | --- | --- | --- | --- |
| CCN(CCO)CCCC(C)Nc1ccnc2cc(Cl)ccc12 (centres unmarked) [HDQ, Hydroxychloroquine, reference compound] | 40 ± 5 µM | 2.3 ± 0.7 µM | 11 ± 2.9 µM | 1.6 ± 0.5 µM | 2.4 ± 0.7 µM | 40 ± 5 µM | 9.8 ± 1.7 µM |  |  |  |  |  |
| CCC(CC)COC(=O)[C@H](C)N[P@](=O)(OC[C@H]1O[C@@](C#N)(c2ccc3c(N)ncnn23)[C@H](O)[C@@H]1O)Oc1ccccc1 [RMD, Remdesivir] |  |  |  | 6 ± 2 µM | 1.6 ± 0.3 µM |  |  | exerted its antiviral activity | did not affect the early events of the viral life cycle | > 100 µM | > 100 µM |  |
| heparin |  |  |  |  |  |  |  |  |  |  |  | barely noticeable |
